Test results: paper PMC10891143, “Quantitative live cell imaging of a tauopathy model enables the identification of a polypharmacological drug candidate that restores physiological microtubule interaction” (Nature Communications, 2024)

What was measured:
[1] = target: T1, Tau (recombinant human tau, Tau441wt) (Homo sapiens, UniProt P10636); test: heparin-induced aggregation, ultracentrifugation sedimentation assay; assay type: biochemical; settings: 20 µM PHOX15 (significant, p = 0.0494), 24 h, 37 °C, pH 7.4, 200 µg/ml heparin, 1% DMSO
T1 construct: gene MAPT; full-length Tau441, pET-3d, E. coli BL21(DE3)pLysS; anion exchange and phosphocellulose chromatography

[2] = target: T2, Tau (recombinant human tau, Tau441wt) (Homo sapiens, UniProt P10636, DEL125-375/DEL395-460/DEL597-597); test: as above; assay type: biochemical; settings: 2-20 µM PHOX15, 24 h, 37 °C, pH 7.4, 200 µg/ml heparin, 1% DMSO
T2 construct: gene MAPT; full-length Tau441, pET-3d, E. coli BL21(DE3)pLysS; anion exchange and phosphocellulose chromatography

[3] = target: T3, PAGFP-Tau / PAGFP-TauΔK280 (Homo sapiens, UniProt P10636, DEL125-375/DEL395-460/DEL597-597); test: FDAP live-cell imaging, effective diffusion constant of tau (restored microtubule binding); assay type: cell-based
T3 construct: gene MAPT
Description: FDAP live-cell imaging, effective diffusion constant of tau (restored microtubule binding) on PAGFP-Tau / PAGFP-TauΔK280 | IC50 value of the activity of PHOX15 to restore microtubule binding of TauΔK280, obtaining

T1 sequence (P10636 1-441 isoform P10636-8): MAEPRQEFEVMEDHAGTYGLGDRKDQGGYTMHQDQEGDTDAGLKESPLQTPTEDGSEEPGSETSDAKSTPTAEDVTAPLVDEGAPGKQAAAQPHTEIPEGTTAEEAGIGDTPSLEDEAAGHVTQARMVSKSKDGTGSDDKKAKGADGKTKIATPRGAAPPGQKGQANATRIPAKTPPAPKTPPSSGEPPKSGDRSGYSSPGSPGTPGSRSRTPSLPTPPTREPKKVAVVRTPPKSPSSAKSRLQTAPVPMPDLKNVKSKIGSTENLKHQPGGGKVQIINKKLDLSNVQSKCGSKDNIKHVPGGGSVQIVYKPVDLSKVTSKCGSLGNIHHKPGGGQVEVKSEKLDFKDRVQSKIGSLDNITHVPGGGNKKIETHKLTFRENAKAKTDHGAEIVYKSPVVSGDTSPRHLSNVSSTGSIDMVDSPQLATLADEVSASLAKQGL
T2 sequence (P10636 with tags, fused parts or gaps DEL125-375/DEL395-460/DEL597-597): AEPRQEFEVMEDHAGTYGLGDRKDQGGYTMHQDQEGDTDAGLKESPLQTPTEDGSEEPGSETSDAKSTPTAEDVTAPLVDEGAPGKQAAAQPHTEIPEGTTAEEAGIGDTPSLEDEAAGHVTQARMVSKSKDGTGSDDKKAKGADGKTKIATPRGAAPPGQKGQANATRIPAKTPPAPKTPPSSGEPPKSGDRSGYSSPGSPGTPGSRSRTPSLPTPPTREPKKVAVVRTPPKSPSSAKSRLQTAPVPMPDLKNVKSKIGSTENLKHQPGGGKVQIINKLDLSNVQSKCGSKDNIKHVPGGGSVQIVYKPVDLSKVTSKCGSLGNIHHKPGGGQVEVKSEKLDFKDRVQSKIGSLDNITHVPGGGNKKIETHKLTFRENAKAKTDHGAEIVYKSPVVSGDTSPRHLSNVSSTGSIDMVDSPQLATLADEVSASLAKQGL
T3 sequence (P10636 with tags, fused parts or gaps DEL125-375/DEL395-460/DEL597-597): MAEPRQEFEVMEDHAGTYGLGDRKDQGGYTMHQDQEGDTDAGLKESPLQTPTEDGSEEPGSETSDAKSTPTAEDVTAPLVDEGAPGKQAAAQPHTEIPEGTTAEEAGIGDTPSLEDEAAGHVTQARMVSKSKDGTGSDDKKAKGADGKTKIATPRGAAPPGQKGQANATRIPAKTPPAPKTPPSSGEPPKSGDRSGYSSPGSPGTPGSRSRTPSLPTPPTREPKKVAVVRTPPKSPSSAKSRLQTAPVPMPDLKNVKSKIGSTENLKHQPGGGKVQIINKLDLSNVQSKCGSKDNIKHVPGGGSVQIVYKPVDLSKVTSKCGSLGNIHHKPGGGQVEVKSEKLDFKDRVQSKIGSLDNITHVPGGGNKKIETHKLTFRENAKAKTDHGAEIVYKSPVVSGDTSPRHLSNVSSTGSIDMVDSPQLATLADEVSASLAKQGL

O=C(Nc1ccccc1)c1coc(-c2ccc(O)cc2O)n1 [PHOX15, 2-(2,4-dihydroxyphenyl)-N-phenyloxazole-4-carboxamide] was tested, and the “fraction of aggregated tau” value [1] was “PHOX15 decreases aggregation of recombinant TauΔK280 and human wild-type tau (Tau) in vitro”, the “% reduction of filament formation” value [2] was ~ 20% and the IC50 [3] was 14 µM.
